# Assay results published in PMC8707861 (Tomography, 2021).
# Like-named read-outs stand apart in the source and are kept apart here.
# What was measured:
# [1] = Stability by incubation in 10 mM cysteine solution (HPLC); format: physicochemical
# Experimental: (§1) After different time intervals the content of the solutions was tested by HPLC method.
# [2] = Stability by incubation in 10 mM histidine solution (HPLC); format: physicochemical
# Experimental: as §1
# [3] = human serum, 37 °C
# Experimental: In the case of stability studies in human serum (HS), the solution of isolated radioconjugate in PBS (0.1 mL) was added to 0.9 mL of the human serum and incubated at 37 °C. After time periods up to 4 h, 0.2 mL of the incubated serum mixture were withdrawn, mixed in an Eppendorf tube with 0.5 mL ethanol and vigorously shaken to precipitate proteins. After centrifuging (14,000 rpm for 5 min) the γ-radiation of both the supernatant and precipitate was measured using the well-type NaI(Tl) detector. To check whether the radioconjugate had not converted into other water-soluble radioactive species, aliquots of the supernatant were analysed by HPLC.
# [4] = Paper electrophoresis analysis (charge of the molecule); format: physicochemical; details: 0.01 M phosphate buffer pH 7.40, 200 V, 45 min
# Experimental: Paper electrophoresis experiments were achieved on 20 × 1 cm chromatographic paper strips, Paper Chromedia GF 83 (Whatman), in the phosphate buffer (0.01 M, pH 7.40), using the midi horizontal electrophoresis unit (Sigma-Aldrich) device. For both radioconjugates, the experiments were carried out at 200 V (10 V cm^−1) for 45 min and then the distribution of radioactivity on the strips was determined using a Storage Phosphor System Cyclone Plus (Perkin-Elmer Life and Analytical Sciences, Downers Grove, IL, USA).
# [5] = test system: P. aeruginosa ATCC 27,853; experiment: In vitro binding of radioconjugate to bacteria; format: cell-based; details: Pseudomonas aeruginosa, 37 °C
# Experimental: (§2) Bacteria were cultured on Columbia Agar supplemented with 5% sheep blood (Graso Biotech, Starogard Gdański, Poland) at 37 °C in an aerobic atmosphere for 24 h. After incubation, a bacterial suspension with the turbidity 3 according to the McFarland standards (cell density approximately 9 × 10^8 CFU/mL) was prepared in PBS. […] The mixtures of bacteria and the radioconjugate were incubated in separated tubes for different time intervals at 37 °C without shaking. […] The supernatant was removed to a new tube, and the bacterial pellet was resuspended in 1 mL of PBS, then the sample was again centrifuged at 7000 rpm for 5 min. After second centrifugation, the supernatant was removed to a new tube and the bacterial pellet was again resuspended in 1 mL of PBS. The radioactivity measurement was performed for all three fractions, two supernatants, and a final bacterial pellet suspension. Experiments for each incubation time were triplicate.
# S. aureus ATCC 25,923 = experiment: In vitro binding of radioconjugate to bacteria; format: cell-based; details: Staphylococcus aureus, 37 °C
# Experimental: as §2
# [6] = n-octanol/PBS pH 7.40, triplicate
# Experimental: The lipophilicity of the radioconjugates was characterised by the determination of the logarithm of distribution coefficient, logD, in the n-octanol/PBS (pH 7.40) system, which mimics the physiological conditions (Product Properties Test Guidelines OPPTS 830.7550, 1996). The 1 mL PBS solution of a given radioconjugate previously isolated from reaction mixture was introduced to a test tube containing 1 mL of n-octanol and vortexed for 1 min. After that, the test tube was centrifuged for 5 min at 5800 rpm to ensure complete separation of the layers. The activity of each layer was measured, using a well-type NaI(Tl) detector. […] The logD measurements of all radioconjugates were performed in triplicate.
# [7] = period of four half-lives of the radionuclide
compound,measurement,setting,value
O=C(O)C[N+]12CC[N+]34CC[N+]5(CC(=O)N6CCN(c7cc8c(cc7F)c(=O)c(C(=O)O)cn8C7CC7)CC6)CC[N+]6(CC1)CC(=O)[O][68Ga-3]2365[O]C(=O)C4 (centres unmarked) [[^68Ga]Ga-DOTA-CIP],% of intact radioconjugate after incubation in CYS,"[1]; 10 mM CYS in PBS pH 7.4, 37 °C, after 4 h",~100%
same,Stability in CYS challenging solution (in words),[1]; [7],completely stable
same,% of intact radioconjugate after incubation in HIS,"[2]; 10 mM HIS in PBS pH 7.4, 37 °C, after 4 h",~100%
same,Stability in HIS challenging solution (in words),[2]; [7],completely stable
same,% of intact radioconjugate after incubation in HS,[3]; after 0.5 h,~100%
same,% of intact radioconjugate after incubation in HS,[3]; after 1 h,~100%
same,% of intact radioconjugate after incubation in HS,[3]; after 4 h,~100%
same,Stability in HS (in words),[3]; for 68Ga period of four half-lives,completely stable
same,Charge of the molecule by electrophoresis,[4],Negative charge
same,Radioconjugate Uptake,[5]; binding time 30 min,0.82 ± 0.16%
same,Radioconjugate Uptake,[5]; binding time 60 min,1.29 ± 0.27%
same,Radioconjugate Uptake,"S. aureus ATCC 25,923; binding time 30 min",0.89 ± 0.11%
same,Radioconjugate Uptake,"S. aureus ATCC 25,923; binding time 60 min",1.1 ± 0.15%
same,logD,[6],−3.1 ± 0.1
